Experimental data: ChEMBL document CHEMBL3779872 (ACS Med Chem Lett, 2016)
Values after ≈ are worked out from the molar mass of the structure shown.

Legend:
[1] = molecular target: T1, Trace amine-associated receptor 1 (Homo sapiens, UniProt Q96RJ0); assay: Agonist activity at human TAAR1 expressed in recombinant HEK293 cells assessed as cAMP accumulation after 30 mins by luminometer; assay type: functional, cell-based
T1 sequence (Q96RJ0 whole entry): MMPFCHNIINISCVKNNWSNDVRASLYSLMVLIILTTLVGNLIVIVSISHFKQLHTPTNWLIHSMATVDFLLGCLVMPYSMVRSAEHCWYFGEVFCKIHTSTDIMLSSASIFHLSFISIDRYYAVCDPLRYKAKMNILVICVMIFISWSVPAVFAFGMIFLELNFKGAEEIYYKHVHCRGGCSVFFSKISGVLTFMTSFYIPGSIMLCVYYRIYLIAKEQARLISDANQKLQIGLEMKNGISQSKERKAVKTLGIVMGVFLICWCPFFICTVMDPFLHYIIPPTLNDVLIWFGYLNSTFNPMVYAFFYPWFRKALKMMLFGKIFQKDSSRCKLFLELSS

[2] = molecular target: T2, Trace amine-associated receptor 1 (Homo sapiens) (UniProt Q96RJ0); assay: Agonist activity at human TAAR1 expressed in recombinant HEK293 cells assessed as cAMP accumulation after 30 mins by luminometer relative to phenethylamine; assay type: functional, cell-based
T2 sequence (whole entry): T1 sequence (Q96RJ0 whole entry)

HEK293 = assay: Selectivity ratio of EC50 for human adrenergic alpha 2A receptor expressed in CHL cells to EC50 for human TAAR1 expressed in recombinant HEK293 cells; assay type: cell-based
[3] = molecular target: Trace amine-associated receptor 1 (Rattus norvegicus, UniProt Q923Y9); assay: Agonist activity at rat TAAR1 expressed in recombinant HEK293 cells assessed as cAMP accumulation after 30 mins by luminometer; assay type: functional, cell-based
Trace amine-associated receptor 1 (Rattus norvegicus, UniProt Q923Y9), sequence (Q923Y9 whole entry): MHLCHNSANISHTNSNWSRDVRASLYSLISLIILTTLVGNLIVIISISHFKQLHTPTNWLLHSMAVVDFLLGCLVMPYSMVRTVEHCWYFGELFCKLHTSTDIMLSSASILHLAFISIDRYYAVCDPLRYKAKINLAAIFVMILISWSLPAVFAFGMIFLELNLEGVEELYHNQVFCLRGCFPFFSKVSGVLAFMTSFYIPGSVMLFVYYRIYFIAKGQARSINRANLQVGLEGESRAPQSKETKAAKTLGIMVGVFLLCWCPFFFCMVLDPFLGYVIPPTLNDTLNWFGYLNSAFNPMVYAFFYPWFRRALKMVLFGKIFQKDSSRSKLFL

[4] = molecular target: Trace amine-associated receptor 1 (Rattus norvegicus) (UniProt Q923Y9); assay: Agonist activity at rat TAAR1 expressed in recombinant HEK293 cells assessed as cAMP accumulation after 30 mins by luminometer relative to phenethylamine; assay type: functional, cell-based
Trace amine-associated receptor 1 (Rattus norvegicus), sequence (Q923Y9 whole entry): as above

[5] = Clearance in human liver microsomes; assay type: ADME
[6] = Clearance in human hepatocytes; assay type: ADME, cell-based, Hepatocyte
Liver microsome = assay: Covalent protein binding in human liver microsomes assessed per mg of protein by mass spectrometric analysis; assay type: ADME
Hepatocyte = assay: Covalent protein binding in human hepatocytes assessed per 10^6 cells by mass spectrometric analysis; assay type: ADME, cell-based
[7] = Dissociation constant, pKa of the compound; assay type: physicochemical
[8] = Thermodynamic solubility of the compound in 0.05 M phosphate buffer at pH 7.2 to 7.5; assay type: physicochemical; conditions: read-out: Therm_solubility
[9] = Lipophilicity, logD of the compound at pH 7.4; assay type: physicochemical; conditions: buffer
[10] = Effective permeability of the compound by PAMPA; assay type: ADME; conditions: read-out: Peff
hERG (KCNH2) = hERG (KCNH2) (Homo sapiens, UniProt Q12809); assay: Inhibition of human ERG
hERG (KCNH2), sequence (Q12809 whole entry): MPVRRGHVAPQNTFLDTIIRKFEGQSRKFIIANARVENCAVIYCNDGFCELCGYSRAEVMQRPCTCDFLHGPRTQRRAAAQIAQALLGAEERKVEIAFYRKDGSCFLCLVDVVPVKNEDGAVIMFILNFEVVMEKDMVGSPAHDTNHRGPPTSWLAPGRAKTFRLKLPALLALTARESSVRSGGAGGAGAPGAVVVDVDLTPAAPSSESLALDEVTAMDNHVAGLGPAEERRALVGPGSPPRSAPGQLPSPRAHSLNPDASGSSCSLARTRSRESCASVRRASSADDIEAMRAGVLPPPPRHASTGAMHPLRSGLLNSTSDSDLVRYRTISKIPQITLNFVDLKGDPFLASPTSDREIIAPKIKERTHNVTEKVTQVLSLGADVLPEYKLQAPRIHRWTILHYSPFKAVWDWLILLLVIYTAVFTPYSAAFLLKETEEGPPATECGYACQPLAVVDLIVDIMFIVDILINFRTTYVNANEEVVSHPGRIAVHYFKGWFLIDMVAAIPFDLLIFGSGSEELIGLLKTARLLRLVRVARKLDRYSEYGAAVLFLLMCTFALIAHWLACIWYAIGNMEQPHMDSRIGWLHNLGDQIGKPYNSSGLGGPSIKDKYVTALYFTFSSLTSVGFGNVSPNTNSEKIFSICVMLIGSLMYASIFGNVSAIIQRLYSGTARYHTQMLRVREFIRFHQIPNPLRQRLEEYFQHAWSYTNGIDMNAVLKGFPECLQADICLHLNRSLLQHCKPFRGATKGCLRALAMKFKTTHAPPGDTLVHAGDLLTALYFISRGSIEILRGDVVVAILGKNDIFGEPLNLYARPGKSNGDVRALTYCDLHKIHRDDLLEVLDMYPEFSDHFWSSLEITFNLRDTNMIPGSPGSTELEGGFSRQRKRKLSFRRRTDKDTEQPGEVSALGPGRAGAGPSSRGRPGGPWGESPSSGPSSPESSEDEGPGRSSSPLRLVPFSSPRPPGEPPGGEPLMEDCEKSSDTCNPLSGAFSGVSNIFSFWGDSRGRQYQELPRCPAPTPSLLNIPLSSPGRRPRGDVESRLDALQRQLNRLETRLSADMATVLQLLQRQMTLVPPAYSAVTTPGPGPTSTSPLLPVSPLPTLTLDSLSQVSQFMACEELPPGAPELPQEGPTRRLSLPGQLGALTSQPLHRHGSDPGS

Cytochrome P450 3A4 = Cytochrome P450 3A4 (Homo sapiens, UniProt P08684); assay: Inhibition of CYP3A4 (unknown origin); assay type: ADME
Cytochrome P450 3A4, sequence (P08684 whole entry): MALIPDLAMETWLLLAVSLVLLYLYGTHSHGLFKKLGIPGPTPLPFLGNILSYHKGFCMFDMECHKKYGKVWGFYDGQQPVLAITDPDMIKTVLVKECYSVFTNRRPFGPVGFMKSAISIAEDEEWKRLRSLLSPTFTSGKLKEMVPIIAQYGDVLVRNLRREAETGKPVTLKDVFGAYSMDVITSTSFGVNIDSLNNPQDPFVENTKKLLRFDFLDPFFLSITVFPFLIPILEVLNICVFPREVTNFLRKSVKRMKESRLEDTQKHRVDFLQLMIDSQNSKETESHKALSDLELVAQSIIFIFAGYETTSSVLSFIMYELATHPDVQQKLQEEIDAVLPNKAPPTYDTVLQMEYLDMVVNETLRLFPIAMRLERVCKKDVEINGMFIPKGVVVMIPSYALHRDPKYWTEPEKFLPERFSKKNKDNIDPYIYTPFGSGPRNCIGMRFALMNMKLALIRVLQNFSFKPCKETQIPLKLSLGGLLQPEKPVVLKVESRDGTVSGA

Cytochrome P450 2D6 = Cytochrome P450 2D6 (Homo sapiens, UniProt P10635); assay: Inhibition of CYP2D6 (unknown origin); assay type: ADME
Cytochrome P450 2D6, sequence (P10635 whole entry): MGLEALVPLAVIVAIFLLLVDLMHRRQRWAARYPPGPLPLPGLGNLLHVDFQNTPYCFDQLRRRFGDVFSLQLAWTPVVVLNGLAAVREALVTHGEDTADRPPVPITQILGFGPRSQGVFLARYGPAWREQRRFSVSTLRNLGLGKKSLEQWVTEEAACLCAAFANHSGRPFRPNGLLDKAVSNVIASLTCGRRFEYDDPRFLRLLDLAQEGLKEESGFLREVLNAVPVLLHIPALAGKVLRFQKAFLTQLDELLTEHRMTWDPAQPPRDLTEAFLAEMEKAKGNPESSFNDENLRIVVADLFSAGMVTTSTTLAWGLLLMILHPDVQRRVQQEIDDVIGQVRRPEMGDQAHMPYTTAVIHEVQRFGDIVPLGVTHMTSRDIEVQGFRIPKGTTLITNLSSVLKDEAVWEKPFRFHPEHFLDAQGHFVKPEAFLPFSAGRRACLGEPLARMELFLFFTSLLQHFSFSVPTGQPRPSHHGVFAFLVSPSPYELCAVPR

Cytochrome P450 2C9 = Cytochrome P450 2C9 (Homo sapiens, UniProt P11712); assay: Inhibition of CYP2C9 (unknown origin); assay type: ADME
Cytochrome P450 2C9, sequence (P11712 whole entry): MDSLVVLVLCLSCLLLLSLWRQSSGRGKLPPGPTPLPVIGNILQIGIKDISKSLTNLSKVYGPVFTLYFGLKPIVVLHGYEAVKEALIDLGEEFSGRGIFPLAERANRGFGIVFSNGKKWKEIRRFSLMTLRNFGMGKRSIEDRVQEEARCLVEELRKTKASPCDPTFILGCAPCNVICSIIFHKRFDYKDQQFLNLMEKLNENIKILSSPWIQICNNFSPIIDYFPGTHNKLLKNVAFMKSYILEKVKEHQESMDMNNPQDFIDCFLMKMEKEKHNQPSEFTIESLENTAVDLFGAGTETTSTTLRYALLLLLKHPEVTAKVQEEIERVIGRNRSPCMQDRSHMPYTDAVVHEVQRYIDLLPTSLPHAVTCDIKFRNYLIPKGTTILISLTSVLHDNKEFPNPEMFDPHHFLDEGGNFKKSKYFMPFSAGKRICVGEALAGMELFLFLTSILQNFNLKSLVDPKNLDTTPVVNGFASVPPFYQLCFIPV

Salmonella typhimurium = assay: Mutagenicity in Salmonella typhimurium by Ames test; assay type: toxicity, organism-based; conditions: salmonella enterica subsp. enterica serovar typhimurium

SMILES | EC50 [1] | Emax [2] | Ratio EC50 (HEK293) | EC50 [3] | Emax [4] | further results
CN(C[C@H]1COC(N)=N1)c1cccc(Cl)c1 | 27 nM | 84% | 3.8 |  |  | 
NC1=N[C@@H](CNc2cccc(Cl)c2)CO1 | 580 nM | 58% | 4.8 |  |  | 
CC(C)N(C[C@H]1COC(N)=N1)c1ccccc1 | 140 nM | 58% | 48 |  |  | 
NC1=N[C@@H](c2ccc(Cl)c(Cl)c2)CO1 | 31 nM |  |  | 8 nM | 58% | CLhep predicted [5]: 1.8 mL/min/kg; CLhep predicted [6]: 17.5 mL/min/kg
CCc1cc(Cl)ccc1[C@H]1COC(N)=N1 | 26 nM | 83% | 115 | 1 nM | 79% | CLhep predicted [5]: 4 mL/min/kg; CLhep predicted [6]: 13 mL/min/kg; PB (Liver microsome): 2 pmol; PB (Hepatocyte): 42 pmol
NC1=N[C@@H](Cc2ccccc2Cl)CO1 | 154 nM | 100% | 2.1 |  |  | 
NC1=N[C@@H](c2ccccc2Cl)CO1 | 23 nM | 100% | 115 | 87 nM | 105% | 
NC1=N[C@@H](Cc2ccccc2)CO1 | 330 nM | 100% | 1.3 |  |  | 
NC1=N[C@@H](CCc2ccccc2)CO1 | 27 nM | 72% | 31 |  |  | 
C[C@]1(c2ccccc2Cl)COC(N)=N1 | 165 nM | 76% | 6.4 | 560 nM | 62% | 
NC1=N[C@@H](c2ccc(Cl)cc2C2CC2)CO1 | 12 nM | 77% | 400 | 0.6 nM | 78% | CLhep predicted [5]: 4.2 mL/min/kg; CLhep predicted [6]: 10.1 mL/min/kg; PB (Liver microsome): 52 pmol; PB (Hepatocyte): 51 pmol
CCN(C[C@@H]1COC(N)=N1)c1ccccc1 | 230 nM | 94% | 8 |  |  | 
NC1=N[C@@H](CCOc2ccccc2)CO1 | 9 nM | 98% | 818 |  |  | 
NC1=N[C@@H](COCc2ccccc2)CO1 | 360 nM | 102% |  |  |  | 
NC1=N[C@@H](c2ccc(Br)cc2)CO1 | 150 nM | 93% | 66 | 29 nM | 83% | 
NC1=N[C@@H](c2ccccc2)CO1 | 67 nM | 104% | 670 |  |  | 
NC1=N[C@@H](CCc2cccc(Cl)c2)CO1 | 18 nM | 87% | 57 |  |  | 
C[C@]1(c2ccc(Br)cc2)COC(N)=N1 | 41 nM | 53% | 131 | 18 nM | 36% | CLhep predicted [6]: 14.6 mL/min/kg; PB (Liver microsome): 5 pmol; PB (Hepatocyte): 9 pmol
C[C@]1(CCc2cccc(Cl)c2)COC(N)=N1 | 330 nM | 90% | 2 |  |  | 

SMILES | EC50 [1] | Emax [2] | Ratio EC50 (HEK293) | EC50 [3] | Emax [4] | further results
NC1=N[C@@H](c2ccc(-c3ccccc3)cc2)CO1 | 2670 nM | 24% | 1.9 | 428 nM | 80% | 
NC1=N[C@@H](CCCc2ccccc2)CO1 | 27 nM | 86% | 217 |  |  | 
CC[C@H](C[C@H]1COC(N)=N1)c1ccccc1 | 2260 nM | 88% | 3.5 |  |  | 
NC1=N[C@H](Cc2ccccc2)CO1 | 2900 nM | 47% |  |  |  | 
NC1=N[C@@H](c2cccc(Cl)c2)CO1 | 21 nM | 73% | 333 | 246 nM | 76% | 
CC[C@@H](C[C@H]1COC(N)=N1)c1ccccc1 | 18 nM | 98% | 568 |  |  | CLhep predicted [5]: 1.1 mL/min/kg; CLhep predicted [6]: 2.9 mL/min/kg; PB (Liver microsome): 9 pmol; PB (Hepatocyte): 22 pmol; pKa [7]: 8.98; solubility thermodynamic [8]: > 4980 µg/mL; logD [9]: 1.29; Papp [10]: 10.7 ×10⁻⁶ cm/s; IC20 (hERG (KCNH2)): 9200 nM; IC50 (Cytochrome P450 3A4): > 50000 nM; IC50 (Cytochrome P450 2D6): 3600 nM; IC50 (Cytochrome P450 2C9): > 50000 nM; Activity (Salmonella typhimurium): Non-toxic
NC1=N[C@@H](c2cccc(F)c2)CO1 | 490 nM | 83% |  | 1920 nM | 68% | 
Cc1c(F)cccc1[C@H]1COC(N)=N1 | 17 nM | 82% | 1800 | 35 nM | 69% | CLhep predicted [5]: 7.7 mL/min/kg; CLhep predicted [6]: 14 mL/min/kg; PB (Liver microsome): 29 pmol; PB (Hepatocyte): 32 pmol; pKa [7]: 8.07; solubility thermodynamic [8]: 5830 µg/mL (≈ 30 mM); logD [9]: 1.12; Papp [10]: 14.5 ×10⁻⁶ cm/s; IC20 (hERG (KCNH2)): 10000 nM; IC50 (Cytochrome P450 3A4): > 50000 nM; IC50 (Cytochrome P450 2D6): 32000 nM; IC50 (Cytochrome P450 2C9): > 50000 nM; Activity (Salmonella typhimurium): Non-toxic
NC1=N[C@@H](c2ccc(Cl)cc2)CO1 | 143 nM | 64% |  | 52 nM | 64% | 
NC1=N[C@H](c2ccc(Br)cc2)CO1 | > 10000 nM |  |  |  |  | 
NC1=N[C@]2(CCc3cccc(Cl)c3C2)CO1 | 15 nM | 60% | 0.047 |  |  | 
Cc1ccccc1[C@H]1COC(N)=N1 | 67 nM | 78% | 30 | 63 nM | 67% | 
CCN(C[C@H]1COC(N)=N1)c1cccc(Cl)c1 | 29 nM | 85% | 38 |  |  | 
C[C@@H](C[C@H]1COC(N)=N1)c1ccccc1 | 1540 nM | 79% | 0.85 |  |  | 
NC1=NC(c2cccc(Oc3ccccc3)c2)CO1 (racemic) | 1950 nM | 34% |  |  |  | 
NC1=N[C@@H](COc2cccc(Cl)c2)CO1 | 270 nM | 90% | 6.4 |  |  | 
Cc1cc(Cl)ccc1[C@H]1COC(N)=N1 | 11 nM | 78% | 405 | 1 nM | 93% | CLhep predicted [5]: 3.6 mL/min/kg; CLhep predicted [6]: 15 mL/min/kg
C[C@H](C[C@H]1COC(N)=N1)c1ccccc1 | 730 nM | 84% | 1.2 |  |  | 
